Measured values as given in publication PMC2654417 (Combinatorial chemistry & high throughput screening, 2008).
pEC50: −log10 of the molar value. Read-outs that look alike come from different tables or passages of the source. Blank lines part the entries; values can stand above or below the molecule they belong to.

Key:
[1] = target: T1, glucocorticoid receptor (GR) (Homo sapiens, UniProt P04150); assay: GR-EFC nuclear translocation assay; type: cell-based; details: for qHTS Hill Slope: Hill slope of the qHTS curve fit; for log qEC50: log10 of qEC50 in M, printed as negative values; for qHTS Max Activity: maximal activity of the qHTS curve, inactive threshold […] (3σ)
T1 sequence (P04150 1-777): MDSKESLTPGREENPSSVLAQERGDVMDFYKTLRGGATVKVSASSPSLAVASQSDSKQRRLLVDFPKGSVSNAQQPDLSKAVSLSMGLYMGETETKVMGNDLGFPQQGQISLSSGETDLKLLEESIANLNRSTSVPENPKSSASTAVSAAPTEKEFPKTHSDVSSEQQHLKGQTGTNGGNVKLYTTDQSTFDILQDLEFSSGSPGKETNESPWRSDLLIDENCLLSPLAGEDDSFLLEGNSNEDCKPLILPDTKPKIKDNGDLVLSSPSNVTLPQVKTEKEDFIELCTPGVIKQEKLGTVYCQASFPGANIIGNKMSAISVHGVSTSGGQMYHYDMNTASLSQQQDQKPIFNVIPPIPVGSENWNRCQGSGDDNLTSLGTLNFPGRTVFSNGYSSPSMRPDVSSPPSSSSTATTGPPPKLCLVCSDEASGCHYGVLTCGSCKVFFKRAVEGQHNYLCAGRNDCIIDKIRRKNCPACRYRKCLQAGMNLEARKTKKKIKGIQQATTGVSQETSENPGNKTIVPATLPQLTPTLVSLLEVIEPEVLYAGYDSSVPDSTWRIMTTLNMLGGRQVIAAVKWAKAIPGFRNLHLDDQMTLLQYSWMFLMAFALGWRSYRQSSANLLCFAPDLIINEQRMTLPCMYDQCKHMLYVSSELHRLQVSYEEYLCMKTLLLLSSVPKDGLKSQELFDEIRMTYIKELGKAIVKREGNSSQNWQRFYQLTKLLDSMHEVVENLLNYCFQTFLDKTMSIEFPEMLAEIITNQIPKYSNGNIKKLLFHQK

[2] = target: T1, glucocorticoid receptor (GR); details: GR-rich cell extract; cited from earlier work
[3] = read-out: qEC50, qHTS curve fit, class 4 values are fit defaults
[4] = class 4 values are fit defaults

Structure (SMILES): C[C@]12Cc3cn4c(nc3C=C1CC[C@H]1[C@@H]2CC[C@@]2(C)[C@H]1CC[C@@]2(O)C#N)nc1ccccc14 [NCGC00016090-01]
qHTS Curve Class [1]: 4 (inactive, where activity was below 28.6% (3σ for the present assay))
pEC50 ([1]; read-out: qEC50): < 5.05

Structure (SMILES): C[C@H]1[C@H](C)CC[C@@]2(C(=O)O)CC[C@]3(C)C(=CC[C@H]4[C@@]5(C)C[C@@H](O)[C@H](O)[C@@](C)(CO)[C@@H]5CC[C@@]43C)[C@@H]12 [NCGC00017359-01]
qHTS Curve Class [1]: 4 (inactive, where activity was below 28.6% (3σ for the present assay))
pEC50 ([1]; read-out: qEC50): < 5.05

Structure (SMILES): C[C@@]12CC[C@H]3[C@@H](CC[C@@H]4C[C@H](O)CC[C@]43C)[C@H]1CC[C@H]2O [NCGC00015090-01]
pEC50 [1, 3]: < 5.05

Structure (SMILES): C[C@H](CCC(=O)NCC(=O)O)[C@H]1CC[C@H]2[C@H]3[C@@H](C[C@@H](O)[C@]12C)[C@]1(C)CC[C@H](O)C[C@@H]1C[C@@H]3O [NCGC00016452-01]
pEC50 [1, 3]: < 5.05

Structure (SMILES): C#C[C@@]1(OC(C)=O)CC[C@@H]2[C@@H]3CCC4=C[C@@H](OC(C)=O)CC[C@H]4[C@H]3CC[C@]21C [NCGC00016417-01]
qHTS Curve Class [1]: 4 (inactive, where activity was below 28.6% (3σ for the present assay))
pEC50 ([1]; read-out: qEC50): < 5.05

Structure (SMILES): C#C[C@@]1(O)CC[C@@H]2[C@@H]3CCC4=CC(=O)CC[C@@H]4[C@H]3CC[C@]21C [NCGC00016303-01]
qHTS Curve Class [1]: 4 (inactive, where activity was below 28.6% (3σ for the present assay))

Structure (SMILES): CCC(=O)O[C@H]1CC[C@H]2[C@@H]3CCC4=CC(=O)CC[C@]4(C)[C@H]3CC[C@]12C [NCGC00016254-01]
pEC50 [1, 3]: < 5.05

Structure (SMILES): COc1cc2c(cc1O)CC[C@@H]1[C@@H]2CC[C@@]2(C)[C@H](O)CC[C@H]12 [NCGC00015690-01]
pEC50 [1, 3]: < 5.05

Structure (SMILES): C[C@@]12CC[C@H](O)C[C@@H]1CC[C@H]1[C@H]2C[C@@H](O)[C@]2(C)[C@@H](C3=CC(=O)OC3)CC[C@@]12O [NCGC00017309-01]
pEC50 [1, 3]: < 5.05

Structure (SMILES): COc1ccc2c(c1)CC[C@H]1[C@@H]2CC[C@@]2(C)[C@@H](NCCCCCCN3C(=O)C=CC3=O)CC[C@@H]12 [NCGC00025091-01]
pEC50 [1, 3]: < 5.05

Structure (SMILES): CC(=O)OCC(=O)[C@H]1CC[C@H]2[C@@H]3CC[C@H]4C[C@H](O)CC[C@]4(C)[C@H]3C(=O)C[C@]12C [NCGC00016783-01]
pEC50 [1, 3]: < 5.05

Structure (SMILES): C#C[C@]1(O)CC[C@@H]2[C@H]3CCc4cc(OC)ccc4[C@@H]3CC[C@@]21C [NCGC00016310-01]
pEC50 [1, 3]: < 5.05

Structure (SMILES): C[C@@]12CC[C@H]3[C@@H](CC[C@]4(O)C[C@H](O)CC[C@@]34C=O)[C@]1(O)CC[C@@H]2C1=CC(=O)OC1 [NCGC00016295-01]
pEC50 [1, 3]: < 5.05

Structure (SMILES): CC(C)CCC(=O)O.C[C@@]12CCC(=O)C[C@@H]1CC(=O)[C@H]1[C@H]3CCC[C@]3(C)C(=O)C[C@@H]12 [NCGC00017016-01]
qHTS Curve Class [1]: 4 (inactive, where activity was below 28.6% (3σ for the present assay))
pEC50 ([1]; read-out: qEC50): < 5.05

Structure (SMILES): C[C@@]12CC[C@H](O)C[C@@H]1CC[C@H]1[C@@H]2C[C@@H](O)[C@]2(C)[C@@H](C3=CC(=O)OC3)CC[C@]12O [NCGC00016591-01]
pEC50 [1, 3]: < 5.05

Structure (SMILES): CC(=O)O[C@@H]1C[C@]2(C)[C@H](C[C@@H](O)[C@H]3[C@@]4(C)CC[C@@H](O)[C@@H](C)[C@@H]4CC[C@@]32C)/C1=C(\CCC=C(C)C)C(=O)[O-].[Na+] [NCGC00016148-01]
qHTS Curve Class [1]: 4 (inactive, where activity was below 28.6% (3σ for the present assay))
pEC50 ([1]; read-out: qEC50): < 5.05

Structure (SMILES): CC(=O)O[C@H]1CC[C@@]2(C)C(=CC[C@@H]3[C@@H]2CC[C@]2(C)C(=O)CC[C@@H]32)C1 [NCGC00016544-01]
pEC50 [1, 3]: < 5.05

Structure (SMILES): C[C@@]12CC[C@@H]3c4ccc(OS(=O)(=O)O)cc4CC[C@H]3[C@H]1CCC2=O [NCGC00016682-01]
pEC50 [1, 3]: < 5.05

More lines, main results first:

pEC50 [1]: 7.44
Structure (SMILES): C[C@]12C[C@H](O)[C@H]3[C@@H](CCC4=CC(=O)CC[C@@]43C)[C@@H]1CC[C@@H]2C(=O)CO [Corticosterone, reference compound]
IC50/Kd [3H]dex binding assay [2]: 0.048 [39] μM

qHTS Hill Slope [1]: 0.13
log qEC50 [1, 4]: −5.381
qHTS Max Activity [1]: 100.0
pEC50 [1, 3]: 5.38
Structure (SMILES): CC(=O)[C@H]1CC[C@H]2[C@@H]3C[C@H](C)C4=CC(=O)CC[C@]4(C)[C@H]3[C@@H](O)C[C@]12C [NCGC00016616-01]

qHTS Hill Slope [1]: 0.55
qHTS Max Activity [1]: 123.7
Structure (SMILES): C[C@@]12CCC(=O)C=C1CC[C@@H]1[C@@H]2[C@H](O)C[C@]2(C)[C@@H]1CC[C@]2(O)C(=O)CO [NCGC00015507-01]

qHTS Hill Slope [1]: 0.98
qHTS Max Activity [1]: 63.5
Structure (SMILES): C[C@H]1C[C@@H]2[C@H]([C@@H](O)C[C@@]3(C)[C@H]2CC[C@]3(O)C(=O)CO)[C@@]2(C)C=CC(=O)C=C12 [NCGC00016330-01]

qHTS Hill Slope [1]: 1.50
qHTS Max Activity [1]: 115.3
Structure (SMILES): CCC(=O)O[C@]1(C(=O)SCF)[C@H](C)C[C@H]2[C@@H]3C[C@H](F)C4=CC(=O)C=C[C@]4(C)[C@@]3(F)[C@@H](O)C[C@@]21C [NCGC00016943-01]

pEC50 [1, 3]: < 5.05
Structure (SMILES): C[C@]12CC[C@H]3[C@@H](CCC4=CC(=O)CC[C@@]43C)[C@@H]1CC[C@@H]2C(=O)CO [NCGC00016292-01]

qHTS Hill Slope [1]: 1.03
log qEC50 [1, 4]: −6.563
qHTS Max Activity [1]: 113.5
pEC50 [1, 3]: 6.56
Structure (SMILES): C[C@]12C=CC(=O)C=C1CC[C@@H]1[C@H]3C[C@@H](O)[C@](O)(C(=O)CO)[C@]3(C)C[C@H](O)[C@]12F [NCGC00016037-01]

log qEC50 [1, 4]: −7.893
qHTS Max Activity [1]: 47.0
pEC50 [1, 3]: 7.89
Structure (SMILES): CC(=O)OCC(=O)[C@@]12OC(C)(C)O[C@@H]1C[C@H]1[C@@H]3C[C@H](F)C4=CC(=O)C=C[C@]4(C)[C@@]3(F)[C@@H](O)C[C@@]12C [NCGC00016436-01]

pEC50 [1, 3]: < 5.05
Structure (SMILES): CC(=O)O[C@@H]1CC[C@]2(C)[C@H]3CC[C@]4(C)[C@H](C[C@H]5CCCC[C@@]54C(C)=O)[C@@H]3CC(=O)[C@@]2(O)C1 [NCGC00017282-01]

qHTS Hill Slope [1]: 0.57
qHTS Max Activity [1]: 15.6
Structure (SMILES): CC(=O)CC(=O)[C@@]1(O)CC[C@@H]2[C@@H]3C=C(C)C4=CC(=O)CC[C@@H]4[C@H]3CC[C@]21C [NCGC00016884-01]

qHTS Hill Slope [1]: 0.96
log qEC50 [1, 4]: −8.025
qHTS Max Activity [1]: 30.2
pEC50 [1, 3]: 8.03
Structure (SMILES): CCOC(=O)O[C@]1(C(=O)COC(=O)CC)CC[C@H]2[C@@H]3CCC4=CC(=O)C=C[C@]4(C)[C@H]3[C@@H](O)C[C@@]21C [NCGC00016926-01]
